What all share (format): in vitro ADME
In series [1] the target is T1, CYP2D6 (Homo sapiens, UniProt P10635).
T1 construct: from tissue; host or cells: human liver microsomes
Briefly: Cytochrome P450 inhibition using human liver microsomes, CYP2D6. The note with it: read-out: CYP 450 IC50, 2D6. Here is the method:
Cytochrome P450 inhibition using Liver Microsomes.
The ability of compounds to inhibit cytochrome P450s (CYPs) was tested using human liver microsomes and a cocktail of substrates specific for CYP1A2, 2C9, 2D6 and 3A4. Compounds were incubated at 37C in presence of human liver microsomes (0.1 mg/ml) at 30, 10, 3, 1, 0.3 and 0.1 µM. A cocktail of substrate was also added for each CYP tested: phenacetin (10 µM, CYP1A2), diclofenac (5 µM, CYP2C9), dextromethorphan (5 µM, CYP2D6) and midazolam (2 µM, CYP3A4). HLM were also incubated with the control inhibitor miconazole at 3, 1, 0.3, 0.1, 0.03 and 0.01 µM. […]
The concentrations of CYP-specific metabolites generated at the end of the reaction were quantified by mass spectrometry using standard curves for each metabolite: acetaminophen (CYP1A2), 4-hydroxydiclofenac (CYP2C9), dextrophan (CYP2D6) and 1-hydroxymidazolam (CYP3A4). A concentration response curve for each metabolite was generated and IC50s were calculated using Prism. The LC-MS/MS transitions for metabolite quantifications are as follows. […]
Prepared samples were injected (10 µL each) onto an AB Sciex Triple Quad 4500 mass spectrometer system with an Agilent 1260 Infinity II pump and autosampler. […] Quantitation of compounds was performed via AB Sciex Multiquant software using the raw analyte:IS peak area ratios. […]

The nature of series [2]: Intrinsic clearance in rat liver microsomes. The conditions noted are these: for CLint scaled at 0.75 h, 1 µM: pH 7.4, rat liver microsomes; for rat CLhep: predicted hepatic clearance from in vitro rat microsomal data. Here is the method: Intrinsic Clearance in Rat and Human Liver Microsomes
The in vitro intrinsic clearance (CL int) was investigated in commercially obtained hepatic microsomes from rat and human donors using the substrate depletion (i.e., loss-of-parent vs. time, or t 1/2 method) approach with analyte detection via liquid chromatography-tandem mass spectrometry (LC-MS/MS). For each species, mean %parent remaining values at each time point were calculated from replicates raw data (analyte:IS peak area ratios) and used to determine in vitro t 1/2 and CLint.
Experiments were carried out using a robot-assisted (TECAN model Evo 200). Compound was incubated (1 µM final concentration) in buffer (100 mM potassium phosphate pH 7.4 with 3 mM MgCl2) containing hepatic microsomes (0.5 mg/mL final concentration) from multiple species, discretely, at 37 °C under constant orbital shaking. After 5 minutes (pre-incubation), reactions were initiated by addition of nicotinamide adenine dinucleotide phosphate (NADPH, 1 mM final concentration). At selected time intervals (0, 3, 7, 15, 25, and 45 minutes) post-addition of NADPH, aliquots (50 µL) were taken and placed into a 96-shallow-well plate containing ice cold acetonitrile (150 µL) with carbamazepine (IS, 50 nM). The plates were then centrifuged (3000 rcf at 4 °C) for 10 minutes. The supernatants were transferred to a new 96-shallow-well daughter plate and diluted (1:1 v/v) with water (Milli-Q filtered). The plates were then sealed in preparation for LC-MS/MS analysis (see below).
Raw LC-MS/MS peak area data generated from the assay samples were used to construct natural log-transformed %parent remaining vs. time plots (using t = 0 minute post-NADPH addition sample data as starting point set to 100%). In vitro compound half-life (t 1/2) values were obtained using the following […]
k is the slope from linear regression analysis of the natural log-transformed data (using means from Where all replicates at each time point). Resulting t 1/2 values were then used to calculate hepatic CLint values according to the following equation and with the use of species-specific scale-up factors for liver weight (grams) per total body weight (kg):
CL = 0.693 x 1 mL incubation x 45 mg microsomes x a gram liver
int in vitro t1/2 0.5 mg microsomes 1 gram liver kg body wt aScale-up factors used are 45 (rat) and 20 (human).1
Predicted hepatic clearance (CLhep) was calculated using the following equation: […]
Qh represents hepatic blood flow (mL/min/kg): 21 for human, 70 for rat, and 90 for mouse.

A short description of series [3]: Binding in brain homogenate from rat (equilibrium dialysis). The conditions noted are these: fraction unbound, rat brain homogenates. Here is the method:
Binding in plasma from rat and human.
Determination of compounds’ fraction unbound (f u) in plasma from rat and human was conducted in vitro via equilibrium dialysis using HTDialysis membrane plates. Dialysis membranes (four paired strips per HTD assay) were hydrated as described by the manufacturer and inserted into the HTD plate, which was assembled and prepared for sample addition by the dispensing of blank buffer (DPBS, 100 µL/well) into the ‘top half’ of each membrane-split well. Each compound was diluted into plasma from each species (5 µM final concentration), which was aliquoted in triplicate to the ‘bottom half’ of the prepared HTD plate wells. […] Supernatant (60 µL) from each well of the daughter plates was then transferred to the corresponding wells of new daughter plates (96-shallow-well, V bottom) containing water (Milli-Q, 60 µL/well), and the plates were sealed in preparation for LC-MS/MS analysis (see below). fu was calculated as (analyte to IS MS peak area ratio from Trans-buffer side) / (analyte to IS MS peak area ratio from Cis-plasma side). Mean values for each species were calculated from 3 replicates. […]
The diluted fraction unbound (f u2) in brain was calculated as (analyte to IS MS peak area ratio from Trans-buffer side) / (analyte to IS MS peak area ratio from Cis-brain homogenate side). […]
Mean values for each species were calculated from 3 replicates.
Background: Equilibrium dialysis compares concentrations on both sides of a semipermeable membrane.

Molecules are shown by their SMILES.

T1 sequence (P10635 whole entry): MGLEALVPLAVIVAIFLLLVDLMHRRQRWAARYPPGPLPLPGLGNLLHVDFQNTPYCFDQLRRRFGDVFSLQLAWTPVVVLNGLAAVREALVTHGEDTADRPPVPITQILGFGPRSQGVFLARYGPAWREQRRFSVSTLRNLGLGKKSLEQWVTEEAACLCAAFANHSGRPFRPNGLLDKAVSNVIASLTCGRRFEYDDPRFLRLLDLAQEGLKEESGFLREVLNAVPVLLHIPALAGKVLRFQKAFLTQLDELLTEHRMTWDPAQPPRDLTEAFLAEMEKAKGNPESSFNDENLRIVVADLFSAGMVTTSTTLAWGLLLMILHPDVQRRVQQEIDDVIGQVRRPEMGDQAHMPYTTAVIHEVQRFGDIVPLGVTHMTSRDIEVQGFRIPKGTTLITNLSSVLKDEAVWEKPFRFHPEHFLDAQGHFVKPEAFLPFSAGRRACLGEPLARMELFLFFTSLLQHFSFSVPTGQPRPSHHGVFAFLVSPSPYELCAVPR

Regarding `Cc1csc(NC(=O)c2cc(O[C@@H]3CCOC3)c3sccc3n2)n1` [19aA], the IC50 in series [1] is greater than 30 µM. Besides, in series [2], the intrinsic clearance (CLint scaled) at 0.75 h, 1 µM turned out to be 143 mL/min/kg and the “rat CLhep” value was 47.0 mL/min/kg. The “Rat f u,brain” value in series [3] is recorded as 0.009.
On to `Cc1csc(NC(=O)c2cc(O[C@@H]3CCOC3)cc(F)c2F)n1` [27cA], for which, in series [1], the IC50 was greater than 30 µM. For the same molecule, in series [2], the CLint scaled at 0.75 h, 1 µM came to 116 mL/min/kg and the “rat CLhep” value is on record as 43.7 mL/min/kg. In series [3], the “Rat f u,brain” value amounted to 0.051.

What is called IC50 is the concentration that gives 50% inhibition. Broadly, the CLint scaled is a measure of how fast metabolising enzymes remove a compound, apart from limits set by blood flow. Low readings indicate greater metabolic stability, high ones faster metabolism.

These data come from publication PMC12067350, “Discovery of Thieno[3,2‑b]pyridine-5-carboxamide and 2,3-Difluorobenzamide Negative Allosteric Modulators of Metabotropic Glutamate Receptor Subtype 5” (ACS Medicinal Chemistry Letters, 2025).
